System: 65 cancer cell lines
Experiment: Cell viability screening of a panel of 65 cancer cell lines, association with cancer type and gene mutation
Type: cell-based, human
Experimental: 65 cancer cell lines (including 12 of breast cancer, 11 of hematologic cancer, 9 of colorectal cancer, 6 of lung cancer, 6 of skin cancer, 4 brain cancer, 3 of renal cancer, 3 of liver cancer, 3 of prostate cancer, 3 of pancreatic cancer, 3 of ovarian cancer, and 2 of stomach cancer) were selected for analysis. Each of the cell lines was cultured and treated with the HDAC6 inhibitor, Compound A, with or without the proteasome inhibitor, bortezomib, before their cell viabilities were measured at the end of treatments. The sensitivities of the cell lines were described using the concentration of Compound A that provides 50% inhibition of cell viabilities (IC50). In all analyses, the logarithm of drug sensitivity values (i.e., Log [IC50]) was used, which is more normally distributed than the raw IC50 values. This is because most standard statistical tests (e.g., t-test and correlation analysis) assume the normal distribution of data points.
For the association tests of gene mutations, 50 common oncogene/tumor suppressor genes were selected to analyze the results. Mutation profiles of the cell lines were downloaded from the Sanger COSMIC DB on the Internet: www dot sanger dot ac dot uk/cosmic. For each gene locus, the “Fisher's Exact Test” was used to calculate statistical significance (p<0.05) of association between the genotype and the cell sensitivities to the treatments.

[1] = most cell lines of the panel, agent alone

SMILES: O=C(CCCCCCNC(=O)c1cnc(N(c2ccccc2)c2ccccc2)nc1)NO [Compound A, 2-(diphenylamino)-N-(7-(hydroxyamino)-7-oxoheptyl)pyrimidine-5-carboxamide]
- sensitivity of cell lines to treatment (cell viability) (a number of lymphoma and leukemia cell lines, single agent): substantial sensitivity
- sensitivity of cell lines to treatment (cell viability) (breast cancer cell lines with Her2 protein overexpression (ERBB2 amplification), Fisher's Exact Test p<0.05): sensitive
- sensitivity of cell lines to treatment (cell viability) (breast cancer cell lines, basal-type or triple negative, Fisher's Exact Test p<0.05): resistant
- sensitivity of cell lines to treatment (cell viability) (cell lines for hematologic malignant cancer, Compound A alone): most sensitive
- sensitivity of cell lines to treatment (cell viability) (lymphoma cells, compared with other cell groups of the 65 lines): most sensitive
- sensitivity of cell lines to treatment (cell viability) [1]: resistant

SMILES: CC(C)C[C@H](NC(=O)[C@H](Cc1ccccc1)NC(=O)c1cnccn1)B(O)O [bortezomib, reference compound]
- sensitivity of cell lines to treatment (cell viability) [1]: resistant

Source: US10648038B2, “Biomarkers to identify patients that will respond to treatment and treating such patients” (Acetylon Pharmaceuticals, Inc., priority 2012, dated 2020)
